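Test compounds were applied to cells in 96-well plates for 48 hours at 5 doses. GI50 is the concentration that inhibits growth by half. Definition used: TGI = concentration required for complete inhibition of growth.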
Key:
Assay in all cases: inhibition of tumour cell growth, NCI panel, 48 h
RPMI-8226 leukemia = tested on: RPMI-8226 leukemia
OVCAR-5 ovarian = tested on: OVCAR-5 ovarian
LOX IMVI melanoma = tested on: LOX IMVI melanoma
SK-OV-3 ovarian = tested on: SK-OV-3 ovarian
MCF7 breast = tested on: MCF7 breast
A549 NSCLC = tested on: A549 NSCLC
UACC-257 melanoma = tested on: UACC-257 melanoma
DU-145 prostate = tested on: DU-145 prostate
CAKI-1 renal = tested on: CAKI-1 renal
HL-60(TB) leukemia = tested on: HL-60(TB) leukemia
RXF 393 renal = tested on: RXF 393 renal

| SMILES | TGI (RPMI-8226 leukemia) [µM] | TGI (OVCAR-5 ovarian) [µM] | TGI (LOX IMVI melanoma) [µM] | TGI (SK-OV-3 ovarian) [µM] | TGI (MCF7 breast) [µM] | TGI (A549 NSCLC) [µM] | TGI (UACC-257 melanoma) [µM] | TGI (DU-145 prostate) [µM] | TGI (CAKI-1 renal) [µM] | TGI (HL-60(TB) leukemia) [µM] | TGI (RXF 393 renal) [µM] | GI50 (UACC-257 melanoma) [µM] |
| --- | --- | --- | --- | --- | --- | --- | --- | --- | --- | --- | --- | --- |
| CC1=C(C(=O)NNC(=O)C[N+](C)(C)C)CC(C(=O)NNC(=O)C[N+](C)(C)C)=C(C)N1 | > 100 | > 100 | > 100 | > 100 | > 100 | > 100 | > 100 | > 100 | > 100 | > 100 | > 100 | – |
| COc1ccc(NC(=S)c2ccc([N+](=O)[O-])o2)cc1 | 4.72 | 9.53 | 4.33 | 25.7 | 4.42 | 11.1 | 7.2 | 10.2 | 14.1 | 5.89 | 5.01 | – |
| Cc1cccc(C)c1NC(=O)C(=O)CC(=O)c1sc(Nc2c(C)cccc2C)nc1C | > 100 | > 100 | > 100 | > 100 | > 100 | > 100 | > 100 | > 100 | > 100 | > 100 | > 100 | – |
| COc1ccc(OC/C(N)=N/NC(=O)c2ccncc2)cc1 | > 100 | > 100 | > 100 | > 100 | > 100 | > 100 | > 100 | > 100 | > 100 | > 100 | > 100 | – |
| Fc1ccc2c(c1)SC1=Nc3sc4cc(F)ccc4[n+]3CN12 | 8.45 | > 100 | 52.5 | > 100 | > 100 | 58.3 | 92.1 | > 100 | 39.3 | 0.184 | 86.8 | – |
| N#CCC(=O)N/N=C\C(O)C(O)C(O)C(O)CO (centres undefined) | > 100 | > 100 | > 100 | > 100 | > 100 | > 100 | > 100 | > 100 | > 100 | > 100 | > 100 | – |
| Cc1cnc2[nH]c(-c3cccc4ccccc34)cc(=O)c2c1 | 28.2 | > 100 | 79.6 | 0.0952 | 41.6 | > 100 | > 100 | > 100 | > 100 | 0.000577 | 0.0923 | 15 |
| CCCCCC(=O)OC[n+]1cccc(-c2c(COC(=O)NC(C)C)c(COC(=O)NC(C)C)c3n2CCC3)c1 | > 100 | > 100 | > 100 | > 100 | > 100 | > 100 | > 100 | > 100 | > 53.9 | > 100 | > 67.1 | – |
| CC(=O)Oc1ccc(-c2nnc(-c3ccc(OC(C)=O)cc3)nn2)cc1 | > 100 | > 100 | > 100 | > 100 | > 100 | > 100 | > 100 | > 100 | > 100 | 84 | > 100 | – |
| CC(C)C(=O)Cc1ccc2ccccc2n1 | 19.9 | > 100 | > 100 | > 100 | > 100 | > 100 | > 100 | > 100 | > 100 | > 100 | > 100 | – |
| C#CCN(C(=O)C(F)(F)F)C(/C=C\C(=O)OC)(C(=O)OCC)C(=O)OCC | > 100 | > 100 | > 100 | > 100 | > 100 | > 100 | – | > 100 | – | > 100 | > 100 | – |
| NC(CCC(=O)O)C(=O)NC(Cc1ccc(N(CCCl)CCCl)cc1)C(=O)O (centres undefined) | > 100 | > 100 | > 100 | > 100 | > 100 | > 100 | > 100 | > 100 | > 100 | > 100 | > 100 | – |
| O=C(/C=C/c1ccccc1)CCN1CCCCC1 | 66.1 | > 100 | 37.6 | > 100 | 89.9 | > 100 | > 100 | > 100 | > 100 | > 100 | 75 | – |
| O=C(O)c1ccccc1/C=C1\Cc2cc3c(cc2C1=O)CCC3 | 55.2 | > 100 | 31.4 | > 100 | 68.5 | > 100 | 79.2 | > 100 | – | 27.1 | 56.5 | – |
| Cc1nn(C(=O)Cc2ccccc2)c2c1C(c1ccc(/C=C/c3ccccc3)cc1)SC(N)=N2 (centres undefined) | > 100 | – | > 100 | > 100 | > 100 | > 100 | > 100 | > 100 | > 100 | > 100 | – | – |
| Cc1ccc2c(=O)cc(-c3cc(C)sc3C)[nH]c2n1 | > 20.5 | > 100 | > 58.8 | > 82.7 | > 100 | > 39.3 | > 100 | > 94.5 | > 100 | 6.74 | > 24.4 | – |
| N/C(=N\N=C\c1nc2ccccc2o1)c1cnccn1 | > 100 | > 100 | > 100 | > 100 | > 100 | > 100 | > 100 | > 100 | > 100 | > 100 | > 100 | – |
| N#CCc1nc(-c2cc3ccccc3oc2=O)cs1 | > 100 | > 100 | > 100 | > 100 | > 100 | > 100 | > 100 | > 100 | > 100 | > 100 | > 100 | – |
